Test results reported in patent US20190151304A1, “METHODS AND PHARMACEUTICAL COMPOSITIONS FOR THE TREATMENT OF AUTOIMMUNE INFLAMMATORY” (INSERM (INSTITUT NATIONAL DE LA SANTÉ ET DE LA RECHERCJAE …, priority 2016, published 2019).

Assays:
DSS-induced colitis mice = DSS-induced colitis mice model (Disease Activity Index, colon length); format: in vivo, Balb/c mice; conditions: 5% DSS in drinking water; 20 μg daily ip, one week
Excerpt: FIG. 2: OXA ameliorates the DAI (weight and colitis score) of DSS-induced colitis mice. Mice were orally treated with 5% DSS for 7 days in the presence or in the absence of daily intraperitoneal injection of OxA (0.22 μmoles/kg). Left, determination of gain or loss of weight in the absence of DSS treatment (Control,▴), in the presence of DSS treatment (DSS,▪) and in the presence of DSS associated to OxA treatment (DSS+OxA,●). Right, evaluation of Disease Activity Index (DAI) scored by measuring weight, length of colon, diarrhea and blood presence in the stool in DSS untreated control mice (Control,A), in DSS treated mice (DSS,▪) and in DSS treated mice associated to OxA treatment (DSS+OxA,●).
FIG. 14: Effect of daily ip inoculation of OxA, Suvorexant and Almorexant on the length of colon from DSS—(dextran sulfate sodium) treated mice mimicking the acute ulcerative colitis disease. A. Mice were treated with 5% (w/v) DSS in drinking water and daily injected with 20 μg of OxA (OXA IP), 20 μg of Suvorexant (Suvo) or 20 μg of Almorexant (Almo). Control (wt) or treated DSS mice (DSS) were daily injected with 100 μl PBS. After one week of treatment, mice were sacrificed and the length of colon which represented a good marker of inflammation state, was measured. […] B. quantification of colon length from 5 different DSS-treated mice injected with OxA (DSS+OXA IP), Almorexant (DSS+Almo), Suvorexant (DSS+Suvo) or not injected (WT and DSS). NS, no significant; *, p<0.05; ** p<0.001
Based on these observations, we have investigated the effect of Orexin A (OxA) on acute inflammation in mice treated with Dextran Sulfate Sodium (DSS). OxA was preferentially chosen in these experiments since the presence of two disulphide bridges confers it more stability. DSS induces acute colitis characterized by weight loss, bloody diarrhea, intestinal ulcerations and infiltrations with granulocytes.
DSS-induced colitis mice models: Balb/c mice were orally treated by 5% (w/v) of Dextran Sulfate Sodium (DSS) for 7 days. Orexin treatment was carried out in DSS treated mice by daily intraperitoneal injection of OxA (0.22 μmoles/kg) for 7 days. Weight and colitis symptoms (diarrhea, blood in the stool . . . ) for each mouse was daily measured. After 7 days of treatment, animals were sacrificed and colons were resected to further analyses (size, histological aspect, cytokine assays).
The inventors have thus investigated the effect of daily intraperitoneal inoculation of OxA, Suvorexant and Almorexant in the experimental context of EXAMPLE 1 (colitis). In particular they investigated the effects of the drugs on the length of colon from DSS-(dextran sulfate sodium) treated mice mimicking the acute ulcerative colitis disease. […]

OX1R = target: T1, OX1R (Homo sapiens, UniProt O43613, A280G); experiment: Ca2+ mobilization assay in HEK-OX1R cells (FluoForte); format: cell-based; conditions: pre-incubation 1 μM for 1 h, then 1 μM OxA
T1 construct: HEK cells expressing recombinant native OX1R (HEK-OX1R); expressed in transfected cells; host or cells: HEK cells (HEK-OX1R)
T1 sequence (O43613 1-425 A280G): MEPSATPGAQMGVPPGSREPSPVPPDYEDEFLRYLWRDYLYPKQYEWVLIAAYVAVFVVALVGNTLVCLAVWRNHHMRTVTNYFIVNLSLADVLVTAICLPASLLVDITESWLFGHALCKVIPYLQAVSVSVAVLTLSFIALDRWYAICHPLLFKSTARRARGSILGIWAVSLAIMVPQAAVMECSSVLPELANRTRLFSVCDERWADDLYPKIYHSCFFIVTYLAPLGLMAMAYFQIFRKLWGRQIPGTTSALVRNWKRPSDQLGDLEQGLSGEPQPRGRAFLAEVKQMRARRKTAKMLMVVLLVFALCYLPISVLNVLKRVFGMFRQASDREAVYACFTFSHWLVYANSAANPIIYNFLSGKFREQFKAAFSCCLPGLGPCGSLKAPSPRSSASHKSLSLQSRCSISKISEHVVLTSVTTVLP

[1] = system: colon adenocarcinoma HT-29 cells; experiment: Cells growth determination, HT-29 cells; format: cell-based; conditions: 48 hr; OxA 0.1 μM, SB408124 increasing concentrations
Protocol: (§1) FIG. 12: Determination of the inhibition of cellular growth of HEK-OX1R cells and colon adenocarcinoma cells (HT-29) induced by 0.1 μM of OxA or various concentrations of SB408124 antagonist. HEK-OX1R cells (black column) and HT-29 cells (white column) were incubated with 0.1 μM of OxA and indicated increasing concentration of SB408124, and cells were counted after 48 hr incubation. Results are expressed as the percentage of total viable cells.
(§2) Cells growth determination and apoptosis assay: HEK-OX1R cells or colon adenocarcinoma HT-29 cells were seeded, grown and maintained at 37° C. in a humidified 5% CO2/air incubator. After 24 hr culture, cells were treated with or without Orexin-A peptide or SB408124 antagonist, previously dissolved in DMSO, to be tested at the concentration indicated in the figure legends. After 48 hr of treatment, adherent cells were harvested by Trip1E (Life Technologies, Saint Aubin, France) and manually counted. Apoptosis was determined using the Guava PCA system and the Guava nexin kit.

HEK-OX1R cells = experiment: Cells growth determination, HEK-OX1R cells; format: cell-based; conditions: 48 hr; OxA 0.1 μM, SB408124 increasing concentrations
Protocol: as §1, §2

[2] = system: colon adenocarcinoma HT-29 cells; experiment: Apoptosis assay (annexin V-PE binding, Guava nexin kit) in HT-29 cells; format: cell-based; conditions: 48 h; orexin-A 1 μM, SB408124 various concentrations
Protocol: FIG. 13: Effect of orexin-A and SB408124 antagonist on apoptosis in OX1R expressing colon adenocarcinoma cells, HT-29. HT-29 cells were challenged with 1 μM orexin-A or various concentration of SB408124 for 48 h. Apoptosis was measured by determination of annexin V-PE binding, and results are expressed as the percentage of apoptotic cells. Results are means±SE of three experiments. ***P<0.001.
as §2

SMILES | Protection from DSS induced acute ulcerative colitis (length of colon) (DSS-induced colitis mice) | Effect on OxA-induced Ca2+ mobilization in HEK-OX1R cells (OX1R) | Inhibition of cellular growth of HT-29 cells [1] | Inhibition of cellular growth of HEK-OX1R cells (HEK-OX1R cells) | Apoptosis in HT-29 cells [2]
Cc1ccc(-n2nccn2)c(C(=O)N2CCN(c3nc4cc(Cl)ccc4o3)CC[C@H]2C)c1 [Suvorexant] | protect mice from DSS induced acute ulcerative colitis disease |  |  |  | 
CNC(=O)[C@@H](c1ccccc1)N1CCc2cc(OC)c(OC)cc2[C@@H]1CCc1ccc(C(F)(F)F)cc1 [Almorexant] | protect mice from DSS induced acute ulcerative colitis disease |  |  |  | 
Cc1cc(NC(=O)Nc2ccc(N(C)C)cc2)c2cc(F)cc(F)c2n1 [SB408124] |  | totally abolished | strong inhibition in a dose-dependent manner | strong inhibition in a dose-dependent manner | able to induce in a dose-dependent manner cell apoptosis
